From paper PMC8693235, “Biocatalytic kinetic resolution of D,L-pantolactone by using a novel recombinant D-lactonase” (RSC Advances, 2020) come the findings set out here.

In the assay the target is T1, TSDL (D-lactonase) (Thermothielavioides terrestris, UniProt G2R1T8).
T1 construct: gene THITE_2046186; 421 aa, about 45 kDa on SDS-PAGE; pET-28a(+) NcoI/XhoI, E. coli BL21(DE3), intracellular; used as whole cells
T1 sequence (G2R1T8 1-421): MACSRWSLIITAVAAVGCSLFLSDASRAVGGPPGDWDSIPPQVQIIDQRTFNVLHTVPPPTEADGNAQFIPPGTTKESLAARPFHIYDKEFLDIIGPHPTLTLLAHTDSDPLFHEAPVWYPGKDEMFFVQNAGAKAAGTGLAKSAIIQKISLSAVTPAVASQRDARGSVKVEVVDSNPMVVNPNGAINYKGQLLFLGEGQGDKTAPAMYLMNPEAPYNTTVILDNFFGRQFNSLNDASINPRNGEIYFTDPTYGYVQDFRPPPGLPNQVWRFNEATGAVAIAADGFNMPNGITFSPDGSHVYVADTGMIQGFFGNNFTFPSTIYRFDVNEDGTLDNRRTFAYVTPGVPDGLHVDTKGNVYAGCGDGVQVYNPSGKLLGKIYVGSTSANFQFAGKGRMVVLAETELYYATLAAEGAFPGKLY
The assay is described as follows: whole-cell hydrolysis of D,L-pantolactone, HPLC and chiral HPLC. The conditions noted are these: racemic D,L-pantolactone; recombinant E. coli (TSDL) whole cells; pH 7.0, 30 °C; 5% NH3·H2O for pH control. The class given is cell-based.

As for `CC1(C)COC(=O)[C@@H]1O` [D-PL, D-pantolactone], the “whole-cell hydrolysis of D,L-pantolactone, HPLC and chiral HPLC” value is “The recombinant TSDL exhibited high hydrolysis activity and enantioselectivity toward D-PL”.
